Measurements as given in US20220380314A1, “SUBSTITUTED, SATURATED AND UNSATURATED N-HETEROCYCLIC CARBOXAMIDES AND RELATED COMPOUNDS FOR THEIR USE IN THE TREATMENT OF MEDICAL DISORDERS” (Bial - R&D Investments, S.A., priority 2019, published 2022).
Counter-ions that a name gives are not always drawn.

molecular target: T1, acid ceramidase (hACR) (Homo sapiens, UniProt Q13510); assay: Acid ceramidase inhibition, biochemical fluorescent assay with cell lysates overexpressing acid ceramidase, substrate Rbm14-12; settings: cell lysates overexpressing acid ceramidase; 1 hr preincubation at RT; pH 4.5; substrate Rbm14-12 6.3 μM; read-out: hACR IC50
T1 construct: expressed in transfected cells; cell lysate used
T1 sequence (Q13510 143-395 limits assumed): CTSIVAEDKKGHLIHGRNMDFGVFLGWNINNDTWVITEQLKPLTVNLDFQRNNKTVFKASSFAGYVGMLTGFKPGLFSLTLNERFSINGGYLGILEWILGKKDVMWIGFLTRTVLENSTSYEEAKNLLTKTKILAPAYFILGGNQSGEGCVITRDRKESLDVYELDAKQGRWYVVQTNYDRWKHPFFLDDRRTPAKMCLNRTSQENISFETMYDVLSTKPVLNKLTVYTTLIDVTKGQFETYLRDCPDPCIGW
T1 sequence (Q13510 22-142 limits assumed): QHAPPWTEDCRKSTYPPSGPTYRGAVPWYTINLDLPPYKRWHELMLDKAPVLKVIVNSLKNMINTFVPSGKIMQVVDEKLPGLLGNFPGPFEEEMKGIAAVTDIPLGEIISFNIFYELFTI
Method: The ability of exemplary compounds to inhibit acid ceramidase was measured.
Cell lysates overexpressing acid ceramidase were used as the enzyme source for compound potency determination in a biochemical fluorescent assay. Briefly, compounds were preincubated with 10 µg protein of cell lysates in a dose-response manner for 1 hr at RT in the assay buffer containing 25 mM NaAC and 100 mM NaCl, pH 4.5. The reaction was initiated by the addition of substrate Rbm14-12 at a final concentration of 6.3 μM. The reaction was run at RT for 1 hr before it was stopped by the addition of the stopping buffer containing 20% methanol (v/v), 1 mg/ml NaIO4, 0.1 M glycine, pH 10.6. The samples were incubated with the stopping buffer at RT for 1 hr to allow the fluorescent product to be formed. Finally the plate was read with SpectraMax i3 plate reader (Molecular Devices) at ex360 nm and em446 nm. Data were collected and used to determine the IC50 values of compounds by curve fitting to the four-parameter inhibition equation.
The symbol “A” indicates inhibition of less than 0.2 μM; the symbol “B” indicates inhibition in the range of 0.2 μM up to 1 μM; and the symbol “C” indicates inhibition of greater than 1 μM.

SMILES	IC50 [µM]
CCCCCNC(=O)N1CCN(C2CC2)C[C@@H]1C(C)C [Example 118, (2S)-4-Cyclopropyl-2-isopropyl-N-pentylpiperazine-1-carboxamide]	> 1
CC1(C)CC(=O)C(Cc2ccccc2)CN1C(=O)NCCCCc1ccccc1 (stereo not drawn) [Example 121, 5-Benzyl-2,2-dimethyl-4-oxo-N-(4-phenylbutyl)piperidine-1-carboxamide]	< 0.2
CC1(C)CC(=O)/C(=C/c2ccccc2)CN1C(=O)NCCCCc1ccccc1 [Example 122, (5E)-5-Benzylidene-2,2-dimethyl-4-oxo-N-(4-phenylbutyl)piperidine-1-carboxamide]	< 0.2
CC1(C)COCC(c2ccc(F)cc2)N1C(=O)NCCCCc1ccccc1 (stereo not drawn) [Example 136, 5-(4-Fluorophenyl)-3,3-dimethyl-N-(4-phenylbutyl)morpholine-4-carboxamide]	< 0.2
CC(C)CNC(=O)N1C(c2ccc(F)cc2)COCC1(C)C (stereo not drawn) [Example 140, 5-(4-Fluorophenyl)-N-isobutyl-3,3-dimethylmorpholine-4-carboxamide]	< 0.2
CCCCCNC(=O)N1[C@@H](C)COC[C@H]1c1ccc(F)cc1 [Example 141, (3R,5S)-3-(4-Fluorophenyl)-5-methyl-N-pentylmorpholine-4-carboxamide]	0.2 to 1
CCCCCNC(=O)N1[C@H](C)COC[C@@H]1c1ccc(F)cc1 [Example 142, (3S,5R)-3-(4-Fluorophenyl)-5-methyl-N-pentylmorpholine-4-carboxamide]	0.2 to 1
COc1ccc(C2COCC(C)(C)N2C(=O)NCC(C)C)cc1 (stereo not drawn) [Example 143, N-iso-Butyl-5-(4-methoxyphenyl)-3,3-dimethylmorpholine-4-carboxamide]	< 0.2
COc1ccc(C2COCC(C)(C)N2C(=O)NCCC2CC2)cc1 (stereo not drawn) [Example 146, N-(2-Cyclopropylethyl)-5-(4-methoxyphenyl)-3,3-dimethylmorpholine-4-carboxamide]	< 0.2
COc1ccc(C2COCC(C)(C)N2C(=O)NCCC(C)C)cc1 (stereo not drawn) [Example 147, N-iso-Pentyl-5-(4-methoxyphenyl)-3,3-dimethylmorpholine-4-carboxamide]	< 0.2
COc1ccc(C2COCC(C)(C)N2C(=O)NCCc2ccc(F)cc2)cc1 (stereo not drawn) [Example 148, N-[2-(4-Fluorophenyl)ethyl]-5-(4-methoxyphenyl)-3,3-dimethylmorpholine-4-carboxamide]	< 0.2
COc1ccc(C2COCC(C)(C)N2C(=O)NCCCCC2CC2)cc1 (stereo not drawn) [Example 149, N-(4-Cyclopropylbutyl)-5-(4-methoxyphenyl)-3,3-dimethylmorpholine-4-carboxamide]	< 0.2
COc1ccc(C2COCC(C)(C)N2C(=O)NCC2CCCCC2)cc1 (stereo not drawn) [Example 150, N-(Cyclohexylmethyl)-5-(4-methoxyphenyl)-3,3-dimethylmorpholine-4-carboxamide]	< 0.2
COc1ccc(C2COCC(C)(C)N2C(=O)NCc2ccc(F)cc2)cc1 (stereo not drawn) [Example 151, N-[(4-Fluorophenyl)methyl]-5-(4-methoxyphenyl)-3,3-dimethylmorpholine-4-carboxamide]	< 0.2
COc1ccc(C2COCC(C)(C)N2C(=O)NCC(F)(F)F)cc1 (stereo not drawn) [Example 152, 5-(4-Methoxyphenyl)-3,3-dimethyl-N-(2,2,2-trifluoroethyl)morpholine-4-carboxamide]	> 1
CCCCCNC(=O)N1C(c2ccc(OC)nc2)COCC1(C)C (stereo not drawn) [Example 159, 5-(6-Methoxy-3-pyridyl)-3,3-dimethyl-N-pentylmorpholine-4-carboxamide]	< 0.2
CCCCCNC(=O)N1C(c2ccc(OC)cc2F)COCC1(C)C (stereo not drawn) [Example 160, 5-(2-Fluoro-4-methoxyphenyl)-3,3-dimethyl-N-pentylmorpholine-4-carboxamide]	< 0.2
CCCCCNC(=O)N1C(c2ccc(OC)c(F)c2)COCC1(C)C (stereo not drawn) [Example 161, 5-(3-Fluoro-4-methoxyphenyl)-3,3-dimethyl-N-pentylmorpholine-4-carboxamide]	< 0.2
CCCCCNC(=O)N1C(c2ccc(F)c(F)c2)COCC1(C)C (stereo not drawn) [Example 162, 5-(3,4-Difluorophenyl)-3,3-dimethyl-N-pentylmorpholine-4-carboxamide]	< 0.2
CCCCCNC(=O)N1C(c2ccc(F)c(OC)c2)COCC1(C)C (stereo not drawn) [Example 163, 5-(4-Fluoro-3-methoxyphenyl)-3,3-dimethyl-N-pentylmorpholine-4-carboxamide]	< 0.2
CC1(C)CN(C(=O)OCc2ccccc2)CC(c2ccccc2)N1C(=O)NCCCCc1ccccc1 (stereo not drawn) [Example 164, Benzyl 3,3-dimethyl-5-phenyl-4-(4-phenylbutylcarbamoyl)piperazine-1-carboxylate]	> 1
CN1CC(c2ccc(F)cc2)N(C(=O)NCCOCC2CC2)C(C)(C)C1 (stereo not drawn) [Example 168, N-[2-(Cyclopropylmethoxy)ethyl]-6-(4-fluorophenyl)-2,2,4-trimethylpiperazine-1-carboxamide hydrochloride]	< 0.2

More lines, now with the values ahead:

IC50 [µM]	SMILES
> 1	CC1CN(C(=O)NCCCCc2ccccc2)C(C)(C)CC1=O (stereo not drawn) [Example 119, 2,2,5-Trimethyl-4-oxo-N-(4-phenylbutyl)piperidine-1-carboxamide]
> 1	CC1(C)CN(C(=O)NCCCCc2ccccc2)C(C)(C)CC1=O [Example 120, 2,2,5,5-Tetramethyl-4-oxo-N-(4-phenylbutyl)piperidine-1-carboxamide]
> 1	CC1(C)CC(=O)C(c2ccccc2)CN1C(=O)NCCCCc1ccccc1 (stereo not drawn) [Example 123, 2,2-Dimethyl-4-oxo5-phenyl-N-(4-phenylbutyl)piperidine-1-carboxamide]
< 0.2	CCCCCNC(=O)N1CC(C)C(N2CCCCC2)CC1(C)C (stereo not drawn) [Example 124, 2,2,5-Trimethyl-N-pentyl-4-(1-piperidyl)piperidine-1-carboxamide]
< 0.2	CC1(C)CC(N2CCCCC2)C(Cc2ccccc2)CN1C(=O)NCCCCc1ccccc1 (stereo not drawn) [Example 125, 5-Benzyl-2,2-dimethyl-N-(4-phenylbutyl)-4-(1-piperidyl)piperidine-1-carboxamide]
< 0.2	CC1(C)CC(N2CCCCC2)C(Cc2ccccc2)CN1C(=O)NCCc1ccccc1 (stereo not drawn) [Example 126, 5-Benzyl-2,2-dimethyl-N-(2-phenylethyl)-4-(1-piperidyl)piperidine-1-carboxamide]
< 0.2	CCCCCNC(=O)N1CC(Cc2ccccc2)C(N2CCCCC2)CC1(C)C (stereo not drawn) [Example 127, 5-Benzyl-2,2-dimethyl-N-pentyl-4-(1-piperidyl)piperidine-1-carboxamide]
< 0.2	CC1(C)CC(N2CCCCC2)/C(=C/c2ccccc2)CN1C(=O)NCCCCc1ccccc1 (stereo not drawn) [Example 128, (5E)-5-Benzylidene-2,2-dimethyl-N-(4-phenylbutyl)-4-(1-piperidyl)piperidine-1-carboxamide]
0.2 to 1	CC1(C)CC(N2CCCCC2)/C(=C/c2ccccc2)CN1C(=O)NCCc1ccccc1 (stereo not drawn) [Example 129, (5E)-5-Benzylidene-2,2-dimethyl-N-(2-phenylethyl)-4-(1-piperidyl)piperidine-1-carboxamide]
< 0.2	CCCCCNC(=O)N1C/C(=C\c2ccccc2)C(N2CCCCC2)CC1(C)C (stereo not drawn) [Example 130, (5E)-5-Benzylidene-2,2-dimethyl-N-pentyl-4-(1-piperidyl)piperidine-1-carboxamide]
< 0.2	CCCCCNC(=O)N1CC(c2ccccc2)C(N2CCCCC2)CC1(C)C (stereo not drawn) [Example 131, 2,2-Dimethyl-N-pentyl-5-phenyl-4-(1-piperidyl)piperidine-1-carboxamide]
< 0.2	CC1(C)COCC(c2ccccc2)N1C(=O)NCCCCc1ccccc1 (stereo not drawn) [Example 133, 3,3-Dimethyl-5-phenyl-N-(4-phenylbutyl)morpholine-4-carboxamide]
< 0.2	CCCCCCCNC(=O)N1C(c2ccccc2)COCC1(C)C (stereo not drawn) [Example 134, N-Heptyl-3,3-dimethyl-5-phenylmorpholine-4-carboxamide]
0.2 to 1	CC1(C)COCC(c2ccccc2)N1C(=O)NC1CCCCC1 (stereo not drawn) [Example 135, N-Cyclohexyl-3,3-dimethyl-5-phenylmorpholine-4-carboxamide]
< 0.2	CCCCCNC(=O)N1C(c2ccccc2C)COCC1(C)C (stereo not drawn) [Example 158, 3,3-Dimethyl-5-(o-tolyl)-N-pentylmorpholine-4-carboxamide]
< 0.2	CN1CC(C)(C)N(C(=O)NCCCCc2ccccc2)CC1c1ccccc1 (stereo not drawn) [Example 166, 2,2,4-Trimethyl-5-phenyl-N-(4-phenylbutyl)piperazine-1-carboxamide]
< 0.2	CCCCCNC(=O)N1C(c2ccc(F)cc2)CN(C)CC1(C)C (stereo not drawn) [Example 167, 6-(4-Fluorophenyl)-2,2,4-trimethyl-N-pentylpiperazine-1-carboxamide hydrochloride]
